Reference: patent EP4703362A1 (Chengdu Sibeibo Pharmaceutical Technology Co., Ltd, priority 2023, dated 2024)
Like-named read-outs stand apart in the source and are kept apart here.

How the values were obtained:
[1] = stability test in liver microsomes (rat); type: in vitro ADME
Experimental: (§1) The stability of the compound of the present invention in liver microsomes of rat, monkey and human was determined. Tested compounds of the present invention were the compounds in Examples 6, 8 and 29, and a control drug was Zavegepant.
(§2) 3.2 An appropriate amount of liver microsome solution was transferred into a 1 mL 96-deep-well plate, added with a tested drug liquid (or a probe substrate solution), and pre-incubated in a thermal mixer at 37°C for 5 minutes. Two parts of mixed solutions were taken out from the system and added with 1×PBS to replace NADPH, and the mixed solutions were taken out at 0 and 60 minutes respectively, and added with methanol (containing an internal standard) to terminate the reaction. In the remaining mixed system, each well was added with NADPH to start the reaction. In the tested substance group, mixed solutions were taken out from the system at 0, 5, 15, 30, 45 and 60 minutes, and in the control group, mixed solutions were taken out from the system at 0, 30 and 60 minutes, and the mixed solutions were added methanol (containing an internal standard) to terminate the reaction. All samples of the terminated reaction were mixed evenly and centrifuged in a centrifuge at 3800 rpm for 15 minutes, and the supernatant was taken for LC-MS/MS analysis.
(§3) A peak area was determined by an extracted ion chromatogram. A slope value k was determined by linear regression of a remaining percentage of a parent drug relative to a natural logarithm of an incubation time curve. According to the slope, in-vitro half-life periods (t1/2) were respectively calculated, and in-vitro intrinsic clearance rates (CLint, represented by µL/min/mg protein) were calculated. Calculation formulas were as follows: t1/2 = ln2/k = 0.693/k; and CLint = 0.693/t1/2 /liver microsome protein concentration [formula]

[2] = stability test in liver microsomes (monkey); type: in vitro ADME
Experimental: as §1, §2, §3

[3] = stability test in liver microsomes (human); type: in vitro ADME
Experimental: as §1, §2, §3

[4] = plasma protein binding rate test, equilibrium dialysis (rat); type: in vitro ADME, SD rat; details: 1 µM, 6 hours, 37°C
Experimental: (§4) Protein binding rates of the compound of the present invention in plasma of rat, monkey and human were determined by an equilibrium dialysis method. Tested compounds of the present invention were the compounds in Examples 6, 8 and 29, and a control drug was Zavegepant.
(§5) 3.1 A dry dialysis membrane was rinsed with ultrapure water for 2-3 times, and then soaked in a phosphate buffer for 1 hour for later use. Polytetrafluoroethylene module was soaked in 20% ethanol for 30 minutes, and then surface moisture was dried with dust-free paper for later use. The pretreated dialysis membrane was assembled into a dialysis plate according to the product specification, and one side (receptor compartment) of an osmotic membrane in each dialysis well was added with 100 µL of receptor fluid (100 mM phosphate buffer solution plus 0.002% Tween 80).
(§6) 3.2 The plasma was put into a centrifuge tube, a working solution of a tested substance was added into the plasma, wherein a final concentration was 1 µM, and the mixture was turned upside down and mixed evenly (this step was carried out in ice bath). 20 µL of drug-containing plasma each was taken, and was respectively transferred to a 96-well sample plate according to two parts in parallel, and stored in a refrigerator at -20°C as a T0 sample.
(§7) 3.3 Another 100 µL of the above drug-containing plasma was transferred to the other side (sample compartment) of the membrane in the dialysis device according to two parts in parallel, and incubated under vibration at a constant temperature of 37°C for 6 hours. After 6 hours of incubation, 20 µL of the plasma was respectively taken out from the receptor compartment and the sample compartment after equilibration to obtain samples B and A. The samples B and A were respectively added with corresponding volumes of corresponding blank plasma or phosphate buffer solution (containing 0.002% Tween 80), so that a volume ratio of the plasma to the buffer solution in each sample well was 1: 1.
(§8) 3.4 All sample wells were added with 250 µL of methanol solution containing an internal standard, mixed evenly and then centrifuged in a centrifuge at 3800 rpm for 10 minutes. […]
(§9) A plasma protein binding rate and a recovery rate of the compound in plasma were calculated by the following formulas: dissociation percentage (%) = CB /CA; [formula] plasma protein binding rate (fb%) = 1−dissociation percentage (%); [formula] recovery rate (%) = (CB+CA)/CT0 [formula] wherein CB was a concentration of the compound in the receptor fluid after equilibrium dialysis; CA was a concentration of the compound in the drug-containing plasma after equilibrium dialysis; and CT0 was an initial concentration of the compound in plasma.

[5] = plasma protein binding rate test, equilibrium dialysis (monkey); type: in vitro ADME, cynomolgus monkey; details: 1 µM, 6 hours, 37°C
Experimental: as §4, §5, §6, §7, §8, §9

[6] = plasma protein binding rate test, equilibrium dialysis (human); type: in vitro ADME; details: 1 µM, 6 hours, 37°C
Experimental: as §4, §5, §6, §7, §8, §9

[7] = in-vivo pharmacokinetic study on SD rats, intravenous and intranasal administration; details: for AUC / half-life / Vd / bioavailability / Cmax: rat, plasma; for AUC: read-out: Area under curve AUC; for half-life: read-out: Half-life period t1/2 (converted); for Vd: read-out: Volume of distribution steady-state Vss; for bioavailability: read-out: Bioavailability F%; for Cmax: read-out: Concentration to peak Cmax
Experimental: Species: SD rats, male, SPF level.
2.1 An appropriate amount of drug was accurately weighed and added with 50 mM succinate buffer (diluted with D5W, pH=5-6), and mixed evenly and dissolved fully in an ultrasonic and vortexed mode to obtain a 0.2 mg/mL drug solution for intravenous (IV) administration.
2.2 An appropriate amount of drug was accurately weighed and added with 50 mM succinate buffer (diluted with pure water, pH=5-6), and mixed evenly and dissolved fully in an ultrasonic and vortexed mode to obtain a 10 mg/mL drug solution for intranasal (IN) administration.
5 minutes, 10 minutes, 15 minutes, 0.5 hour, 1 hour, 2 hours, 4 hours, 8 hours and 24 hours after administration.
Blood was collected through a jugular vein, about 0.2 mL of each sample was collected, EDTA-K2 was used for anticoagulation, the collected blood sample was placed on ice, and plasma was centrifugally separated within 2 hours (at 6000 g and 2-8°C for 5 minutes). The collected plasma samples were stored in a refrigerator at -80°C before analysis, and the remaining plasma samples after analysis were continuously stored in the refrigerator at -80°C for temporary storage.
A concentration of a specified compound in plasma was determined by an LC-MS/MS method, and main pharmacokinetic parameters were calculated by a Winnolin 8.3 non-compartmental model.

CGRP receptor = biological target: T1, CGRP receptor (Homo sapiens, UniProt O60894+Q16602); assay: Competitive binding determination of in-vitro [125I] CGRP; details: competition with 125I-CGRP (Human) 200 pM, SK-N-MC cell membrane
T1 construct: A tissue homogenate of SK-N-MC cell membrane was used as a receptor source; host or cells: SK-N-MC (membrane preparation)

[8] = test system: capsaicin-induced change of blood flow in forearm skin of cynomolgus monkeys; assay: in-vivo pharmacodynamic study, capsaicin-induced change of blood flow in forearm skin; details: 0.05 mg/kg IV, 10 minutes after capsaicin treatment
Experimental: • 2.1Animal information: Species and strain: cynomolgus monkeys, male (5-8 kg), animal license: SYXK(Su)2019-0004, depilated 3 days before the experiment. • 2.2Preparation of test sample: An appropriate amount of drug was accurately weighed and dissolved in sterile saline solution, and mixed evenly and dissolved fully in an ultrasonic and vortexed mode to obtain a 0.05 mg/ml drug solution for intravenous (IV) administration. • 2.3In a pre-test stage, a blood flow in a forearm of an anesthetized animal was scanned by a blood flow meter, and an O-shaped rubber ring was placed on an inner side of the arm, avoiding obvious blood vessels.

[9] = male, other: intranasal, IN@2 mg/kg

In the case of `[2H]C([2H])([2H])N1CCC(N2CCN(C(=O)[C@@H](Cc3cc(C)c4[nH]ncc4c3)NC(=O)N3CCC(c4cc5c([nH]c4=O)SCC5)CC3)CC2)CC1` [Example 29, (R)-N-(3-(7-methyl-1H-indazole-5-yl)-1-(4-(1-(methyl-d3)piperidine-4-yl)piperazine-1-yl)-1-oxopropan-2-yl)-4-(6-oxo-2,3,6,7-tetrahydrothieno[2,3-b]pyridine-5-yl)piperidine-1-formamide], the “% remaining (60 min)” value [1] is reported as 105%, the “% remaining (60 min)” value [2] is reported as 98.9% and the “% remaining (60 min)” value [3] is reported as 115%. For the same compound, the “fb (%)” value [4] was 64.3%, the “fb (%)” value [5] was 56.1% and the “fb (%)” value [6] was 50.2%.
In the case of `Cc1cc(C[C@@H](NC(=O)N2CCC(c3cc4c([nH]c3=O)SCC4)CC2)C(=O)N2CCN(C3CCN(C)CC3)CC2)cc2cn[nH]c12` [Example 8, (R)-N-(3-(7-methyl-1H-indazole-5-yl)-1-(4-(1-methylpiperidine-4-yl)piperazine-1-yl)-1-oxopropan-2-yl)-4-(6-oxo-2,3,6,7-tetrahydrothieno[2,3-b]pyridine-5-yl)piperidine-1-formamide], the half-life at 1 µM [1] is reported as > 2 h, the microsomal CLint at 1 µM [1] is reported as 1.6 µL/min/mg and the “% remaining (60 min)” value [1] is reported as 90.7%. The half-life at 1 µM [2] was 1.48 h, the microsomal CLint at 1 µM [2] was 15.6 µL/min/mg and the “% remaining (60 min)” value [2] was 61.6%. For the same compound, the half-life at 1 µM [3] was > 2 h, the microsomal CLint at 1 µM [3] was 3.2 µL/min/mg and the “% remaining (60 min)” value [3] was 85.8%. For the same compound, the “fb (%)” value [4] was 69.4%, the “fb (%)” value [5] was 47.7% and the “fb (%)” value [6] was 64.1%. The “Apparent clearance CL” value ([7]; IV@1 mg/kg) was 5.94 mL/min/kg, the AUC ([7]; male, IV@1 mg/kg) was 2850 ng·h/mL and the half-life ([7]; male, IV@1 mg/kg) was 7.58 h. For the same compound, the Vd ([7]; male, IV@1 mg/kg) was 0.5 L/kg, the AUC [7, 9] was 626 ng·h/mL and the bioavailability [7, 9] was 11%. The Cmax [7, 9] was 204 ng/mL and the half-life [7, 9] was 3.41 h.
With `Cc1cc(C[C@@H](NC(=O)N2CCC(c3cc4ccccc4[nH]c3=O)CC2)C(=O)N2CCN(C3CCN(C)CC3)CC2)cc2cn[nH]c12` [Zavegepant, zavegepant, reference compound] the Ki (CGRP receptor) was 0.0498 nM, the half-life at 1 µM [1] was > 2 h and the microsomal CLint at 1 µM [1] was 2.8 µL/min/mg. The “% remaining (60 min)” value [1] was 95.5%, the half-life at 1 µM [2] was 1.78 h and the microsomal CLint at 1 µM [2] was 13 µL/min/mg. For the same compound, the “% remaining (60 min)” value [2] was 72.1%, the half-life at 1 µM [3] was 1.11 h and the microsomal CLint at 1 µM [3] was 20.8 µL/min/mg. The “% remaining (60 min)” value [3] was 57.5%, the “fb (%)” value [4] was 92.7% and the “fb (%)” value [5] was 78.5%. For the same compound, the “fb (%)” value [6] was 82.0%, the “Apparent clearance CL” value ([7]; IV@1 mg/kg) was 4.59 mL/min/kg and the AUC ([7]; male, IV@1 mg/kg) was 3620 ng·h/mL. For the same compound, the half-life ([7]; male, IV@1 mg/kg) was 2.58 h, the Vd ([7]; male, IV@1 mg/kg) was 0.35 L/kg and the AUC [7, 9] was 385 ng·h/mL. The bioavailability [7, 9] was 5.31%, the Cmax [7, 9] was 645 ng/mL and the half-life [7, 9] was 1.08 h. The “blood flow inhibition rate (Mean)” value [8] was 89.7%.
For `Cc1cc(C[C@@H](NC(=O)N2CCC(c3cc4c([nH]c3=O)SCCC4)CC2)C(=O)N2CCN(C3CCN(C)CC3)CC2)cc2cn[nH]c12` [Example 6, (R)-N-(3-(7-methyl-1H-indazole-5-yl)-1-(4-(1-methylpiperidine-4-yl)piperazine-1-yl)-1-oxopropan-2-yl)-4-(7-oxo-3,4,7,8-tetrahydro-2H-thiopyrano[2,3-b]pyridine-6-yl)piperidine-1-for mamide], the half-life at 1 µM [1] was > 2 h, the microsomal CLint at 1 µM [1] was 2.4 µL/min/mg and the “% remaining (60 min)” value [1] was 91.5%. The half-life at 1 µM [2] was > 2 h, the microsomal CLint at 1 µM [2] was 0.8 µL/min/mg and the “% remaining (60 min)” value [2] was 96.9%. The half-life at 1 µM [3] was > 2 h, the “% remaining (60 min)” value [3] was 131% and the “fb (%)” value [4] was 90.0%. The “fb (%)” value [5] was 61.3%, the “fb (%)” value [6] was 76.7% and the AUC ([7]; IN@2 mg/kg) was 2400 ng·h/mL. It also gave a bioavailability ([7]; IN@2 mg/kg) of 20.1%, a half-life ([7]; IN@2 mg/kg) of 3.8 h and an AUC ([7]; IV@1 mg/kg) of 5990 ng·h/mL. For the same compound, the half-life ([7]; IV@1 mg/kg) was 2.52 h, the Vd ([7]; IV@1 mg/kg) was 0.29 L/kg and the “blood flow inhibition rate (Mean)” value [8] was 355.3%.
